Counter-ions that a name gives are not always drawn.
How the values were obtained:
Type in all cases: in vivo
male ICR mouse [1] = test: Acetic acid-induced writhing test in mouse; settings: po, p.o, acetic acid i.p. 1 hour after dosing, writhing counted for 10 minutes, read-out: Writhing Test Suppression of pain response
In short: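 Test material given orally at 10 mg/kg to male mice (30–35 g); 1 h later 0.8% acetic acid injected i.p. Writhes counted over 10 min immediately afterwards; analgesia expressed as percent suppression of writhing versus vehicle group.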

male ICR mouse [2] = test: Hot plate test in mouse; settings: po, p.o, 1 hour after dosing, hot plate 55° C., read-out: Hot Plate Test Increase in latency of avoidance response
In short: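 Male ICR mice (25–30 g) dosed orally at 30 mg/kg and placed on a 55° C. hot plate 1 h later. Latency to forefoot or hind-leg avoidance (flinching, licking, jumping) recorded; effect expressed as % increase in latency over vehicle group.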

male ICR mouse [3] = test: Elevated plus maze (EPM) test in mouse; settings: po, p.o, 1 hour after dosing, 5 minutes observation, read-out: Elevated Plus Maze Change index in Open-Arm Time
In short: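 Male ICR mice (20–25 g) received test material orally at 10 mg/kg, and open-arm time on the maze was recorded over 5 min starting 1 h after dosing. Value is the change index in open-arm time: (treated − vehicle)/vehicle × 100%.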

male ICR mouse [4] = test: Head twitch potentiation induced by 5-HTP (5-HTP potentiation test) in mouse; settings: po, 0.5 h, p.o, 5-HTP 80 mg/kg + Carbidopa 25 mg/kg i.p. 30 minutes after dosing, head twitches counted for 2 minutes, negative = 5-HT2A antagonist, read-out: 5-HTP Potentiation Increase rate in Head Twitch No.
In short: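 Male ICR mice (20-25 g) dosed orally at 30 mg/kg; 30 min later given 5-HTP (80 mg/kg) plus carbidopa (25 mg/kg) i.p. Head twitches counted for 2 min starting 30 min after i.p. dosing; effect expressed as % increase in twitch number versus vehicle group.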

Row | Compound | inhibition in vivo at 10 mg/kg (male ICR mouse [1]) [%] | change in vivo at 30 mg/kg (male ICR mouse [2]) [%] | change in vivo at 10 mg/kg (male ICR mouse [3]) [%] | change in vivo at 30 mg/kg (male ICR mouse [4]) [%]
1 | NC(=O)OC1c2ccccc2CCC1C(=O)N1CCN(c2ccccc2)CC1 (stereo not drawn) [Example 52, carbamic acid-2-(4-phenyl-piperazine-1-carbonyl)-1,2,3,4-tetrahydro-naphthalene-1-yl ester] | 26.8 | 20.5 | 14.6 | 40
2 | Cc1ccc(N2CCN(C(=O)C[C@@H](OC(N)=O)c3ccccc3)CC2)cc1 [Example 80, (R)-carbamic acid 3-[4-(4-methyl)-phenylpiperazin-1-yl]-3-oxo-1-phenyl-propyl ester] | 36.3 | 16.7 | 41.2 | 12.5
3 | NC(=O)O[C@H](CC(=O)N1CCN(c2ccc(F)cc2)CC1)c1ccccc1 [Example 62, (R)-carbamic acid 3-[4-(4-fluoro-phenyl)-piperazin-1-yl]-3-oxo-1-phenyl-propyl ester] | 66.7 | 13.8 | 2.7 | 0.8
4 | CC(C)(C)c1ccc(N2CCN(C(=O)CC(OC(N)=O)c3ccccc3)CC2)cc1 (stereo not drawn) [Example 17, carbamic acid 3-[4-(4-tert-butyl-phenyl)-piperazin-1-yl]-3-oxo-1-phenyl-propyl ester] | 25.3 | 29.4 | 34 | 10
5 | NC(=O)OC(CC(=O)N1CCN(c2ccccc2)CC1)c1cc(C(F)(F)F)cc(C(F)(F)F)c1 (stereo not drawn) [Example 55, carbamic acid 1-(3,5-trifluoromethyl-phenyl)-3-oxo-3-(4-phenyl-piperazin-1-yl)-propyl ester] | 32.8 | 13.9 | 13.8 | 22.5
6 | O=C1Nc2ccccc2C(CC(=O)N2CCN(c3ccccc3)CC2)O1 (stereo not drawn) [Example 77, 4-[2-oxo-2-(4-phenyl-piperazin-1-yl)-ethyl]-1,4-dihydro-benzo[d][1,3]oxazin-2-one] | 26.4 | 30.4 | 4.9 | 25
7 | CC(=O)Oc1ccc(N2CCN(C(=O)CC(OC(N)=O)c3ccccc3)CC2)cc1 (stereo not drawn) [Example 23, acetic acid 4-[4-(3-carbamoyloxy-3-phenyl-propionyl)-piperazin-1-yl]-phenyl ester] | 21.1 | 29.4 | -25.1 | 100
8 | NC(=O)OC(CCC(=O)N1CCN(c2ccc(Cl)c(Cl)c2)CC1)c1ccccc1 (stereo not drawn) [Example 40, carbamic acid 4-[4-(3,4-dichloro-phenyl)-piperazin-1-yl]-4-oxo-1-phenyl-butyl ester] | 11.1 | 27.8 | 68.8 | 311
9 | NC(=O)OC(CC(=O)N1CCN(c2ccccc2)CC1)c1ccc(F)c(F)c1 (stereo not drawn) [Example 60, carbamic acid 1-(3,4-difluoro-phenyl)-3-oxo-3-(4-phenyl-piperazin-1-yl)-propyl ester] | 28 | 17.2 | 21.3 | -23.5
10 | NC(=O)OC(CC(=O)N1CCN(c2ccccc2)CC1)c1ccc(Cl)cc1 (stereo not drawn) [Example 16, carbamic acid 1-(4-chloro-phenyl)-3-oxo-3-(4-phenyl-piperazin-1-yl)-propyl ester] | 37.3 | 19.5 | 1.3 | 140
11 | NC(=O)OC(CC(=O)N1CCN(c2ccccc2)CC1)c1ccoc1 (stereo not drawn) [Example 49, carbamic acid-1-furan-3-yl-3-oxo-3-(4-phenyl-piperazin-1-yl)-propyl ester] | 34.4 | 20.6 | 48.9 | -20
12 | Cc1cccc(C(CC(=O)N2CCN(c3ccccc3)CC2)OC(N)=O)c1 (stereo not drawn) [Example 50, carbamic acid 1-(3-methyl-phenyl)-3-oxo-3-(4-phenyl-piperazin-1-yl)-propyl ester] | 15 | 31.3 | 65.4 | -21.3
13 | COc1ccc(N2CCN(C(=O)CC(OC(N)=O)c3ccc(C(F)(F)F)cc3)CC2)cc1OC (stereo not drawn) [Example 35, carbamic acid 3-[4-(3,4-dimethoxy-phenyl)-piperazin-1-yl]-3-oxo-1-(4-trifluoromethyl-phenyl)-propyl ester; hydrochloride] | 33.8 | 32.8 | 44 | 64.3
14 | NC(=O)OC(CC(=O)N1CCN(c2ccccc2)CC1)c1cccc(Cl)c1 (stereo not drawn) [Example 51, carbamic acid 1-(3-chloro-phenyl)-3-oxo-3-(4-phenyl-piperazin-1-yl)-propyl ester] | 50.8 | 29.2 | -0.7 | 40.3
15 | NC(=O)O[C@H](CC(=O)N1CCN(c2ccc(F)c(F)c2)CC1)c1ccccc1 [Example 67, (R)-carbamic acid 3-[4-(3,4-difluoro-phenyl)-piperazin-1-yl]-3-oxo-1-phenyl-propyl ester] | 45.1 | 34.3 | 34.3 | 58.8
